In the test the test system is L1210 leukemia ip in BDF1 mice, survival T/C. The test is described as follows: NCI In Vivo Anticancer Drug Screen. Data for tumor model L1210 Leukemia (intraperitoneal) in B6D2F1 (BDF1) mice. Conditions: endpoint: mean survival time, higher = longer survival. In a few lines:
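Transplanted-tumor mice were given test agent; controls received vehicle only. Survival readings from the two groups were divided (treated over control).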

Where [1] appears, read: dose: 100.0 mg/kg/injection, schedule: Q04DX003 (ip), vehicle: Klucel (hydroxypropylcellulose) (HPC).
Where [2] appears, read: dose: 200.0 mg/kg/injection, schedule: Q04DX003 (ip), vehicle: Klucel (hydroxypropylcellulose) (HPC).
Setting [3] is: dose: 400.0 mg/kg/injection, schedule: Q04DX003 (ip), vehicle: Klucel (hydroxypropylcellulose) (HPC).
Setting [4] is: dose: 100.0 mg/kg/injection, schedule: Q01DX009 (ip), vehicle: saline with Tween-80.
Where [5] appears, read: dose: 200.0 mg/kg/injection, schedule: Q01DX009 (ip), vehicle: saline with Tween-80.
The mark [6] stands for this setting: dose: 100.0 mg/kg/injection, schedule: Q01DX001 (ip), vehicle: Klucel (hydroxypropylcellulose) (HPC).
[7] abbreviates: dose: 200.0 mg/kg/injection, schedule: Q01DX001 (ip), vehicle: Klucel (hydroxypropylcellulose) (HPC).
Where [8] appears, read: dose: 400.0 mg/kg/injection, schedule: Q01DX001 (ip), vehicle: Klucel (hydroxypropylcellulose) (HPC).
The mark [9] stands for this setting: dose: 50.0 mg/kg/injection, schedule: Q04DX003 (ip), vehicle: Klucel (hydroxypropylcellulose) (HPC).

“And” between values parts separate entries of the source, which are not always exact repeats. Equal values may be shown once. Inconclusive results and toxic doses are left out.

`O=C(COc1ccc(Cl)cc1C(=O)O)Nc1ccccc1`: the T/C is 93 % of control under setting [1], 102 % of control under setting [2] and 98 % of control under setting [3].
As to `NC(N)=N/N=C/C(O)CO` (stereo unspecified), the T/C was 104 % of control (dose: 15.0 mg/kg/injection, schedule: Q01DX Z (ip), vehicle: methylcellulose (MC)); 113 % of control (dose: 30.0 mg/kg/injection, schedule: Q01DX Z (ip), vehicle: methylcellulose (MC)); 117 % of control (dose: 60.0 mg/kg/injection, schedule: Q01DX Z (oral), vehicle: methylcellulose (MC)); 93 % of control (dose: 240.0 mg/kg/injection, schedule: Q01DX Z (oral), vehicle: methylcellulose (MC)).
With `C=C1N(S(=O)(=O)c2ccc(C)cc2)C(=O)OC12CCCCC2`, the T/C runs as follows: under setting [4], 95 % of control; under setting [5], 103 % of control; (dose: 400.0 mg/kg/injection, schedule: Q01DX009 (ip), vehicle: saline with Tween-80) 105 % of control.
`COc1cc(C=NC(C)(C)CO)cc(OC)c1`: the T/C reads like this: (dose: 100.0 mg/kg/injection, schedule: Q01DX001 (ip), vehicle: alcohol) 88 % of control; (dose: 100.0 mg/kg/injection, schedule: Q04DX003 (ip), vehicle: alcohol) 95 % of control; (dose: 200.0 mg/kg/injection, schedule: Q01DX001 (ip), vehicle: alcohol) 96 % of control; (dose: 200.0 mg/kg/injection, schedule: Q04DX003 (ip), vehicle: alcohol) 97 % of control; (dose: 400.0 mg/kg/injection, schedule: Q01DX001 (ip), vehicle: alcohol) 96 % of control; (dose: 400.0 mg/kg/injection, schedule: Q04DX003 (ip), vehicle: alcohol) 100 % of control.
Turning to `Cc1ccc(COC(=O)c2cccnc2)cc1`, the T/C is, setting by setting: under setting [6], 103 % of control; under setting [7], 100 % of control; under setting [8], 103 % of control.
Turning to `CC12CC3CC(C)(C1)CC(OCCN)(C3)C2`, the T/C (dose: 25.0 mg/kg/injection, schedule: Q01DX009 (ip), vehicle: saline) is 94 % of control; the T/C (dose: 25.0 mg/kg/injection, schedule: Q04DX002 (ip), vehicle: saline) was 98 % of control; the T/C (dose: 50.0 mg/kg/injection, schedule: Q01DX009 (ip), vehicle: saline) was 108 % of control; the T/C (dose: 50.0 mg/kg/injection, schedule: Q04DX002 (ip), vehicle: saline) is 98 % of control; the T/C (dose: 100.0 mg/kg/injection, schedule: Q01DX009 (ip), vehicle: saline) is 92 % of control; the T/C (dose: 100.0 mg/kg/injection, schedule: Q04DX002 (ip), vehicle: saline) is 110 % of control and 117 % of control.
Consider `O=C(O)COc1c(Cl)cc(Cl)c2cccnc12`, for which the T/C was 93 % of control (dose: 100.0 mg/kg/injection, schedule: Q01DX001 (ip), vehicle: carboxymethylcellulose (CMC)) and 101 % of control (dose: 200.0 mg/kg/injection, schedule: Q01DX001 (ip), vehicle: carboxymethylcellulose (CMC)).
As for `CS/C(N)=N\C(=O)N(C)C`, the T/C runs as follows: (dose: 100.0 mg/kg/injection, schedule: Q04DX003 (ip), vehicle: saline with Tween-80) 97 % of control; (dose: 200.0 mg/kg/injection, schedule: Q04DX003 (ip), vehicle: saline with Tween-80) 98 % of control; (dose: 400.0 mg/kg/injection, schedule: Q04DX003 (ip), vehicle: saline with Tween-80) 101 % of control.
On to `CCCCN1CC1CC` (stereo unspecified), for which the T/C was 105 % of control (dose: 25.0 mg/kg/injection, schedule: Q04DX003 (ip), vehicle: Klucel (hydroxypropylcellulose) (HPC)); 95 % of control under setting [9]; 108 % of control under setting [6]; 103 % of control under setting [1].
Regarding `CC(C)CC(Br)C(=O)NCC(=O)NC(Cc1ccccc1)C(=O)O` (stereo unspecified), the T/C under setting [4] was 96 % of control and the T/C under setting [5] is 93 % of control.
Consider `CCc1c(CNc2ccc(C(=O)NC(CC(=O)O)C(=O)O)cc2)ccc2nc(N)nc(N)c12` (stereo unspecified), for which the T/C runs as follows: (dose: 0.06 mg/kg/injection, schedule: Q01DX009 (ip), vehicle: saline) 112 % of control; (dose: 0.25 mg/kg/injection, schedule: Q01DX009 (ip), vehicle: saline) 150 % of control and 184 % of control; (dose: 0.5 mg/kg/injection, schedule: Q01DX009 (ip), vehicle: saline) 150 % of control; (dose: 0.5 mg/kg/injection, schedule: Q04DX003 (ip), vehicle: saline) 112 % of control; (dose: 1.0 mg/kg/injection, schedule: Q01DX009 (ip), vehicle: saline) 90 % of control and 91 % of control; (dose: 4.0 mg/kg/injection, schedule: Q04DX003 (ip), vehicle: saline) 154 % of control. For the same molecule, the T/C (dose: 8.0 mg/kg/injection, schedule: Q04DX003 (ip), vehicle: saline) was 113 % of control.
Consider `COC(=O)c1cccc(OC)c1I`, for which the T/C by setting is: under setting [9], 98 % of control; under setting [1], 106 % of control; under setting [2], 103 % of control.
Take `COc1ccccc1NC(=O)CSC(N)=O`: the T/C (dose: 75.0 mg/kg/injection, schedule: Q## X000 (ip), vehicle: carboxymethylcellulose (CMC)) was 100 % of control; the T/C (dose: 125.0 mg/kg/injection, schedule: Q## X000 (ip), vehicle: carboxymethylcellulose (CMC)) is 105 % of control; the T/C (dose: 175.0 mg/kg/injection, schedule: Q## X000 (ip), vehicle: carboxymethylcellulose (CMC)) is 100 % of control; the T/C (dose: 200.0 mg/kg/injection, schedule: Q01DX Z (ip), vehicle: carboxymethylcellulose (CMC)) was 104 % of control; the T/C (dose: 400.0 mg/kg/injection, schedule: Q01DX Z (ip), vehicle: carboxymethylcellulose (CMC)) was 105 % of control.
On to `O=C(Nc1ccc(F)cc1)OCCc1ccccn1`, for which the T/C by setting is: under setting [6], 96 % of control; (dose: 100.0 mg/kg/injection, schedule: Q01DX009 (ip), vehicle: Klucel (hydroxypropylcellulose) (HPC)) 98 % of control and 101 % of control; (dose: 100.0 mg/kg/injection, schedule: Q04DX002 (ip), vehicle: Klucel (hydroxypropylcellulose) (HPC)) 94 % of control and 99 % of control; under setting [1], 113 % of control; under setting [7], 101 % of control; (dose: 200.0 mg/kg/injection, schedule: Q01DX009 (ip), vehicle: Klucel (hydroxypropylcellulose) (HPC)) 101 % of control and 106 % of control. For the same molecule, the T/C is 94 % of control and 96 % of control (dose: 200.0 mg/kg/injection, schedule: Q04DX002 (ip), vehicle: Klucel (hydroxypropylcellulose) (HPC)); 96 % of control under setting [2]; 91 % of control under setting [8]; 94 % of control and 91 % of control (dose: 400.0 mg/kg/injection, schedule: Q01DX009 (ip), vehicle: Klucel (hydroxypropylcellulose) (HPC)); 97 % of control and 105 % of control (dose: 400.0 mg/kg/injection, schedule: Q04DX002 (ip), vehicle: Klucel (hydroxypropylcellulose) (HPC)); 99 % of control under setting [3].
As for `COC(=O)c1cc(Cl)c(C(=O)OC)cc1Cl`, the T/C under setting [1] is 90 % of control, the T/C under setting [2] was 98 % of control and the T/C under setting [3] is 102 % of control.

For the origin of these results see PubChem BioAssay AID248 (DTP/NCI, 2004).
